# According to the supplement of paper PMC11061612:
# Tests used:
# Test in all cases: Bliss excess, mean over the matrix (fraction); higher = more synergy
# [1] = test system: DB (B-Cell Non-Hodgkin's Lymphoma)
# Summary of the method: (§1)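 Cell lines in DMEM/F12 or RPMI with 10% FBS were plated in 1536-well plates, held 24 hours at 37°C, 5% CO2, then given two-drug dose matrices for 72 hours (DMSO typically 0.2%). Viability was read by CellTiter-Glo 2.0 luminescence and scaled as inhibition from 0 (vehicle wells) to 1 (blank wells). Combination Emax is the second-highest inhibition in the matrix; Bliss excess is observed combination effect minus expected EA + EB − EA·EB, EA and EB being single-agent effects.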
# [2] = test system: TGBC24TKB (Biliary Tract Carcinoma)
# Summary of the method: as §1
# [3] = test system: HCC2157 (Breast Carcinoma)
# Summary of the method: as §1
# [4] = test system: MDA-MB-157 (Breast Carcinoma)
# Summary of the method: as §1
# [5] = test system: SW1990 (Pancreatic Carcinoma)
# Summary of the method: as §1
# [6] = test system: SUIT-2 (Pancreatic Carcinoma)
# Summary of the method: as §1
# [7] = test system: HPAC (Pancreatic Carcinoma)
# Summary of the method: as §1
# [8] = test system: DOV13 (Ovarian Carcinoma)
# Summary of the method: as §1
# [9] = test system: MFH-ino (Other Solid Carcinomas)
# Summary of the method: as §1
# [10] = test system: EM-2 (Chronic Myelogenous Leukemia)
# Summary of the method: as §1
# J82 (Bladder Carcinoma) = test system: J82 (Bladder Carcinoma)
# Summary of the method: as §1
# [11] = test system: SW1088 (Low Grade Glioma)
# Summary of the method: as §1
# IGR-1 (Melanoma) = test system: IGR-1 (Melanoma)
# Summary of the method: as §1
# CAL-78 (Chondrosarcoma) = test system: CAL-78 (Chondrosarcoma)
# Summary of the method: as §1
# [12] = test system: G-292-Clone-A141B1 (Osteosarcoma)
# Summary of the method: as §1
# [13] = test system: SW756 (Cervical Carcinoma)
# Summary of the method: as §1
# [14] = test system: KATOIII (Gastric Carcinoma)
# Summary of the method: as §1
# [15] = test system: NALM-6 (B-Lymphoblastic Leukemia)
# Summary of the method: as §1
# [16] = test system: HT-29 (Colorectal Carcinoma)
# Summary of the method: as §1
# [17] = test system: IHH-4 (Thyroid Gland Carcinoma)
# Summary of the method: as §1
Structure (SMILES),Bliss excess [1],Bliss excess [2],Bliss excess [3],Bliss excess [4],Bliss excess [5],Bliss excess [6],Bliss excess [7],Bliss excess [8],Bliss excess [9],Bliss excess [10],Bliss excess (J82 (Bladder Carcinoma)),Bliss excess [11],Bliss excess (IGR-1 (Melanoma)),Bliss excess (CAL-78 (Chondrosarcoma)),Bliss excess [12],Bliss excess [13],Bliss excess [14],Bliss excess [15],Bliss excess [16],Bliss excess [17]
"NC1(C(=O)N[C@@H](CCO)c2ccc(Cl)cc2)CCN(c2ncnc3[nH]ccc23)CC1 [Capivasertib] + Cn1cnc2c(F)c(Nc3ccc(Br)cc3Cl)c(C(=O)NOCCO)cc21 [Selumetinib] (first compound max 10 µM, 7x7, partner max 10 µM)",-0.0093,0.132,0.017,-0.014,0.0535,-0.0181,0.0152,-0.0314,-0.0205,0.0766,-0.021,0.0342,0.103,-0.0369,-0.0056,-0.0177,0.0291,0.0323,-0.0119,-0.0165
"COc1cccc2c1C(=O)c1c(O)c3c(c(O)c1C2=O)C[C@@](O)(C(=O)CO)C[C@@H]3O[C@H]1C[C@H](N)[C@H](O)[C@H](C)O1 [Doxorubicin] + Cc1cc2ncnn2cc1Nc1ncc2c(n1)n(C1CCOCC1)c(=O)n2C [AZD7648] (first compound max 1 µM, 7x7, partner max 10 µM)",0.0888,-0.002,0.112,0.0033,-0.0224,0.0432,0.0275,0.0218,0.0216,0.0536,0.0106,0.0309,0.0132,0.0132,-0.0023,0.0541,-0.0354,0.139,0.0099,0.109
"COc1cc2ncnc(Nc3ccc(F)c(Cl)c3)c2cc1OCCCN1CCOCC1 [Gefitinib] + CC(C)n1c(=O)n(C)c2cnc3cc(F)c(-c4ccc(OCCCN5CCCCC5)nc4)cc3c21 [AZD1390] (first compound max 10 µM, 7x7, partner max 0.3 µM)",0.0332,-0.0379,-0.0136,-0.0453,-0.0441,-0.0527,-0.0607,-0.1,-0.0761,-0.0507,-0.12,-0.0688,-0.006,-0.0625,-0.0548,-0.0551,-0.0113,-0.0643,-0.0512,-0.043
"CS(=O)(=O)CCNCc1ccc(-c2ccc3ncnc(Nc4ccc(OCc5cccc(F)c5)c(Cl)c4)c3c2)o1 [Lapatinib] + C[C@@H](Oc1cc(-c2cnn(C3CCNCC3)c2)cnc1N)c1c(Cl)ccc(F)c1Cl [Crizotinib] (first compound max 10 µM, 7x7, partner max 10 µM)",-0.148,-0.0058,-0.0482,-0.0086,-0.0042,0.0051,0.0358,-0.0621,-0.0902,-0.0062,-0.0317,-0.0612,-0.0282,-0.072,-0.0506,-0.0138,0.0169,-0.0612,-0.0475,-0.0634
"CC(=O)c1c(C)c2cnc(Nc3ccc(N4CCNCC4)cn3)nc2n(C2CCCC2)c1=O [Palbociclib] + CC1(C)CCC(CN2CCN(c3ccc(C(=O)NS(=O)(=O)c4ccc(NCC5CCOCC5)c([N+](=O)[O-])c4)c(Oc4cnc5[nH]ccc5c4)c3)CC2)=C(c2ccc(Cl)cc2)C1 [Venetoclax] (first compound max 10 µM, 7x7, partner max 1 µM)",0.0187,-0.0121,0.0389,-0.0348,-0.0239,-0.0454,-0.0619,0.0125,-0.0576,0.0262,-0.0388,-0.018,-0.0267,-0.0333,-0.0368,-0.062,-0.0606,0.0132,-0.0139,0.0096
"CC(=O)c1c(C)c2cnc(Nc3ccc(N4CCNCC4)cn3)nc2n(C2CCCC2)c1=O [Palbociclib] + Cc1c2c(nn1C)CSCc1cc(n(C)n1)CSc1cc(c3ccccc3c1)OCCCc1c(C(=O)O)n(C)c3c-2c(Cl)ccc13 [AZD5991] (first compound max 10 µM, 7x7, partner max 1 µM)",0.0577,0.0597,-0.0106,-0.0408,-0.0427,-0.014,-0.0423,-0.0567,-0.042,-0.021,-0.0174,0.0212,0.0047,-0.0395,-0.0371,-0.0749,0.0505,0.0147,0.0058,-0.0171
"CC(=O)c1c(C)c2cnc(Nc3ccc(N4CCNCC4)cn3)nc2n(C2CCCC2)c1=O [Palbociclib] + Cn1cnc2c(F)c(Nc3ccc(Br)cc3Cl)c(C(=O)NOCCO)cc21 [Selumetinib] (first compound max 10 µM, 7x7, partner max 10 µM)",-0.0167,0.0495,-0.036,-0.0396,-0.0228,0.0481,0.0461,-0.233,-0.0237,0.0533,-0.0538,-0.0327,0.0661,-0.0463,-0.0291,-0.0736,0.0393,0.0335,0.0336,0.0575
"COc1cccc(OCCCN)c1-c1cc(Nc2cnc(C#N)cn2)n[nH]1 [Prexasertib] + C=CCn1c(=O)c2cnc(Nc3ccc(N4CCN(C)CC4)cc3)nc2n1-c1cccc(C(C)(C)O)n1 [AZD1775] (first compound max 1 µM, partner max 1 µM)",0.071,0.0429,0.0668,0.0628,-0.0061,0.036,0.0323,0.0963,0.039,0.0475,0.096,-0.0156,0.0284,-0.0422,0.028,0.0163,-0.0076,0.0507,-0.0247,0.136
